Laboratory results from US20020065213A1, “METHODS AND COMPOSITIONS FOR NONVIRAL GENE DELIVERY” (priority 1998, published 2002).

How the values were obtained:
B16 cells, PPC-1 cells = assay: Effect on calcium phosphate, adenoviral and electroporation transfection in vitro; assay type: cell-based
Method: B16 cells were electroporated with p4241 as per BioRad (Hercules, Calif.) instructions for the GenePulser II. Calcium phosphate transfections were performed as described in the manufacturer's instructions (Gibco BRL, Grand Island, N.Y.). Adenoviral infection of PPC-1 cells was performed as previously described (Graham and […], 1991).

B16 cells = assay: DNA uptake by cells after CLDC transfection (luciferase, Southern analysis of nuclear and total DNA); assay type: cell-based, mouse
Method: Southern analysis. Isolation of total DNA from mouse tissues was performed as described (Liu et al., 1997). Approximately 2×10^6 B16 cells were cultured in 100 mm dishes for each DNA extraction from cultured cells. Two hundred nanograms of DNA per lane were fractionated on 1% agarose/1X TAE gels overnight. Blotting onto Hybond membrane (Amersham, Arlington Heights, Ill.), prehybridization, hybridization, and washes were performed as described (Sambrook et al., 1989). A 1.2 kb HindIII/EcoRV gel-purified fragment of luciferase from p4241 was radioactively labelled using the Random Primed DNA Labeling Kit (Boehringer Mannheim, Indianapolis, Ind.). Nuclei were isolated from 2×10^6 B16 cells as described (Sambrook et al., 1989), and lysed in NP40 lysis buffer (10 mM Tris, pH 7.4, 10 mM sodium chloride, 3 mM magnesium chloride, and 0.5% nonidet P-40). Nuclear DNA was then isolated from washed nuclei using the same technique as for total DNA isolation (Sambrook et al., 1989).
Fucoidan inhibited CLDC-mediated transfection in vitro by blocking DNA uptake by cells. Nuclei were isolated from cells untreated or pretreated with fucoidan and subsequently transfected with CLDC, and nuclear DNA was assayed for the presence of the luciferase plasmid used in making the complex. The nuclei of cells untreated with fucoidan contained luciferase plasmid, as expected from the high levels of luciferase activity observed in untreated cells. Therefore, DNA did traverse the cell membranes of untreated cells.

ICR female mice = assay: Pretreatment of mice before intravenous CLDC (p4241): luciferase, Southern analysis, rhodamine-lipid; assay type: in vivo, mouse
Method: In vivo transfections. Each mouse received 50 μg p4241 complexed to DOTIM:cholesterol MLV containing 1 mole % rhodamine-PE at a ratio of 1:16 (μg DNA per nmole total lipid). Approximately 25 g ICR female mice (Simonson, Gilroy, Calif.) received 200 μl of CLDC intravenously by tail vein injection. Pretreatments of mice were also by intravenous tail vein injections. Fucoidan, dissolved in phosphate buffered saline (PBS), was pre-injected at a dosage of 500 μg per mouse 0, 1, 2, 10, 24, or 48 hrs prior to CLDC injection. Heparinase I and III (Sigma) were dissolved in 0.15 M sodium chloride at a concentration of 75 units per 100 μl, and 100 μl per mouse were injected 15 minutes prior to injection of CLDC. Control mice were preinjected at appropriate times with either PBS or 0.15 M sodium chloride. As an additional control, heparinase I was boiled for 10 minutes to denature and deactivate the enzyme prior to pre-injection. Mice were harvested 24 hours post-CLDC injection, and pieces of lung, liver, heart, and spleen were placed in 1X lysis buffer (Promega, Madison, Wis.) on ice for luciferase assays (Liu et al., 1997). Samples of liver and lung were frozen on dry ice prior to Bligh Dyer extractions for rhodamine-liposome fluorescence analysis and isolation of DNA for Southern analysis as described (Liu et al., 1997).

murine B 16 cells = assay: Inhibition of in vitro CLDC-mediated transfection (luciferase) by polysaccharide pretreatment
ICR mice = assay: Host pretreatment before i.v. CLDC or naked DNA, tissue luciferase activity; assay type: in vivo, mouse
Method: Plasmid: p4241 (HCMV-luciferase, see Liu et al., 1997).
Liposomes: DOTIM:chol MLV in 1:1 molar ratio.
DNA:Liposome Ratio: liposome:plasmid 1:16 (μg plasmid DNA to nanomoles total lipid).
Pretreatment: Individual mice in groups of 5 received either 200 μl of D5W only by IV injection, 1 mg dexamethasone (Sigma) in 200 μl D5W by IV tail vein injection, 250 μg Ticlopidine (Sigma) dissolved in 200 μl D5W by IV injection, 175 μg ammonium chloride (Fisher) dissolved in 1000 μl D5W by IP injection, respectively, four hours before IV injection of CLDC. For 4-APP pretreatment, a group of 5 mice were IP injected with 1.5 mg of 4-Aminopyrazolo(3,4d)-pyrimidine (Sigma, A2630) dissolved in 1 ml 0.01 M sodium phosphate, pH 2.5, daily for three days before receiving an IV injection of p4241-containing CLDC as described above. Another group of 5 mice received 1 ml 0.01 M Sodium Phosphate, pH 2.5 solution by IP injection daily for three days before receiving an injection of IV CLDC as above, thus serving as control for 4-APP pretreatment group.
DNA dose: 40 μg plasmid DNA in 200 μl of 5% dextrose in water (D5@) was injected by tail vein per mouse.
Animals: ICR mice:female, 25 grams (Simonsen Labs, Gilroy, Calif.).
Quantitation of luciferase: Twenty-four hours after injection of CLDC, mice were sacrificed in a CO2 chamber, and lungs, heart, spleen and liver were collected and assayed for luciferase activity. Relative light units were converted to luciferase activity, and an unpaired, two side Student's t test applied for statistical analysis of potential differences between groups as described previously (Liu et al., 1997).
In another experiment, the effect of pretreatment on subsequent expression of the same plasmids delivered as naked DNA was examined. Pretreated animals were injected with 6.25 mg of mannitol (Sigma, MO) in 200 microliters of water 2 hours or 24 hours prior to iv administration of the p4241 luciferase vector as naked DNA in water, 50% glycerol or D5W. Control animals received water alone as a pretreatment. […]

[1] = cells pretreated for 30 minutes with 1 μM
[2] = iv 15 minutes before CLDC injection

In the case of fucoidan, the “transfection by calcium phosphate” value (B16 cells, PPC-1 cells) is reported as “inhibited the transfection”, the “luciferase DNA in nuclei” value (B16 cells; [1]) is reported as “no luciferase DNA in their nuclei” and the “luciferase expression of cells” value (B16 cells; [1]) is reported as “did not express luciferase”. The “Southern analysis of total DNA from whole cell extracts” value (B16 cells; pretreated cultured cells) was “failed to show evidence of any DNA crossing the cell membranes”, the “luciferase activity in lung and heart tissues” value (ICR female mice; 500 μg per mouse iv, 1 hour before CLDC) was “drastic reductions in luciferase activity” and the “CLDC mediated transfection of lung cells” value (ICR female mice; 10 hours post exposure) was “still inhibits CLDC mediated transfection of lung cells”. The “rhodamine-lipid found in the lung and liver” value (ICR female mice; one hour pretreatment) was “significantly decreased levels of rhodamine-lipid”, the “p4241 plasmid in total DNA from lungs and livers (Southern analysis)” value (ICR female mice; pretreated for 1 hour) was “decreased levels of p4241 plasmid” and the “magnitude of luciferase depression in tissues” value (ICR female mice; pretreated for 1 hour in vivo) was “approximately 100 fold”. The “decrease in p4241 plasmid in nuclear DNA isolated from lungs” value (ICR female mice; treated versus untreated animals) was 3 fold, the “CLDC transfection in vitro after pretreatment of cells” value (“CLDC transfection in vitro” for short) (murine B 16 cells) was “largely blocked” and the “effect on CLDC-mediated transfection, cells pretreated” value (murine B 16 cells; 10 nM) was “little effect”.
In the case of `Nc1ncnc2[nH]ncc12` [Plasmid 4-APP, 4-Aminopyrazolo(3,4d)-pyrimidine], the “luciferase activity versus buffer-pretreated mice” value (ICR mice; preinjection before iv CLDC (p4241), 24 hours after CLDC) is reported as “significantly increased luciferase activity”.
In the case of dextran, the “CLDC transfection at high concentrations” value (murine B 16 cells) is reported as “significant elevation of transfection” and the “CLDC transfection in vitro” value (murine B 16 cells) is reported as “failed to inhibit transfection”.
heparin was tested, and the “CLDC-mediated gene transfer following intravenous injection of CLDC into mice” value (ICR female mice; mouse, in vivo, iv) was “abolished CLDC-mediated gene transfer” and the “CLDC transfection in vitro” value (murine B 16 cells) was “largely blocked”.
In the case of dextran sulfate, the “CLDC transfection in vitro” value (murine B 16 cells) is reported as “largely blocked” and the “concentration sufficient to block transfection” value (murine B 16 cells; murine B 16 cells) is reported as 10 nM.
In the case of heparinase I, the “reporter plasmid DNA in lungs, fold less than control lungs (Southern analysis)” value (ICR female mice; [2]) is reported as 2 fold, the “rhodamine labelled lipid recovered from lungs” value (ICR female mice; [2]) is reported as “significantly decreased the levels of rhodamine labelled lipid” and the “transfection efficiency of CLDC (luciferase) in lungs, hearts and spleens” value (ICR female mice; [2]) is reported as “significantly decreased”.
With `OC[C@@H](O)[C@@H](O)[C@H](O)[C@H](O)CO` [mannitol] the “in vivo expression of luciferase from p4241 versus controls” value (ICR mice; 6.25 mg 2 hours prior to iv naked DNA) was “significantly higher” and the luciferase expression (ICR mice; 6.25 mg 24 hours prior to p4241) was “Some increase”.
